B1: Dopamine transporter (DAT) (Mus musculus) (protein)
chain: MSKSKCSVGPMSSVVAPAKEPNAVGPREVELILVKEQNGVQLTNSTLINPPQTPVEVQERETWSKKIDFLLSVIGFAVDLANVWRFPYLCYKNGGGAFLVPYLLFMVIAGMPLFYMELALGQFNREGAAGVWKICPVLKGVGFTVILISFYVGFFYNVIIAWALHYFFSSFTMDLPWIHCNNTWNSPNCSDAHSSNSSDGLGLNDTFGTTPAAEYFERGVLHLHQSRGIDDLGPPRWQLTACLVLVIVLLYFSLWKGVKTSGKVVWITATMPYVVLTALLLRGVTLPGAMDGIRAYLSVDFYRLCEASVWIDAATQVCFSLGVGFGVLIAFSSYNKFTNNCYRDAIITTSINSLTSFSSGFVVFSFLGYMAQKHNVPIRDVATDGPGLIFIIYPEAIATLPLSSAWAAVFFLMLLTLGIDSAMGGMESVITGLVDEFQLLHRHRELFTLGIVLATFLLSLFCVTNGGIYVFTLLDHFAAGTSILFGVLIEAIGVAWFYGVQQFSDDIKQMTGQRPNLYWRLCWKLVSPCFLLYVVVVSIVTFRPPHYGAYIFPDWANALGWIIATSSMAMVPIYATYKFCSLPGSFREKLAYAITPEKDRQLVDRGEVRQFTLRHWLLV
B2: Dopamine transporter (DAT) (Mus musculus; T53A) (protein)
chain: MSKSKCSVGPMSSVVAPAKEPNAVGPREVELILVKEQNGVQLTNSTLINPPQAPVEVQERETWSKKIDFLLSVIGFAVDLANVWRFPYLCYKNGGGAFLVPYLLFMVIAGMPLFYMELALGQFNREGAAGVWKICPVLKGVGFTVILISFYVGFFYNVIIAWALHYFFSSFTMDLPWIHCNNTWNSPNCSDAHSSNSSDGLGLNDTFGTTPAAEYFERGVLHLHQSRGIDDLGPPRWQLTACLVLVIVLLYFSLWKGVKTSGKVVWITATMPYVVLTALLLRGVTLPGAMDGIRAYLSVDFYRLCEASVWIDAATQVCFSLGVGFGVLIAFSSYNKFTNNCYRDAIITTSINSLTSFSSGFVVFSFLGYMAQKHNVPIRDVATDGPGLIFIIYPEAIATLPLSSAWAAVFFLMLLTLGIDSAMGGMESVITGLVDEFQLLHRHRELFTLGIVLATFLLSLFCVTNGGIYVFTLLDHFAAGTSILFGVLIEAIGVAWFYGVQQFSDDIKQMTGQRPNLYWRLCWKLVSPCFLLYVVVVSIVTFRPPHYGAYIFPDWANALGWIIATSSMAMVPIYATYKFCSLPGSFREKLAYAITPEKDRQLVDRGEVRQFTLRHWLLV

Columns and labels:
[1] = molecular target: Dopamine transporter (DAT) (Mus musculus, UniProt Q61327, T53A); test: inhibition of [3H]DA uptake in mouse striatal synaptosomes; type: biochemical
[2] = molecular target: Dopamine transporter (DAT) (Mus musculus, UniProt Q61327); test: as above; type: biochemical
[3] = substrate: NCCc1ccc(O)c(O)c1; test: [3H]DA uptake kinetics; type: biochemical, Mus musculus

Row | Molecule | IC50 [1] | IC50 [2] | Km [3]
1 | CN[C@@H](C)Cc1ccccc1 [METH] | 262 ± 25 nM | 280 ± 40 nM | –
2 | CC(N)Cc1ccccc1 (centres unmarked) [amphetamine] | 198 ± 68 nM | 183 ± 23 nM | –
3 | COC(=O)[C@H]1[C@@H](OC(=O)c2ccccc2)C[C@@H]2CC[C@H]1N2C [cocaine] | 1270 ± 348 nM | 268 ± 58 nM | –
4 | B1 | – | – | 0.0778 ± 0.003009 µM
5 | B2 | – | – | 0.07117 ± 0.006766 µM

From article PMC8117066 (Behavioural brain research, 2021)
